One data set deals with MDA-MB-231. Put plainly: Cytotoxicity against human MDA-MB-231 cells assessed as decrease in cell viability at 3.12 to 100 uM after 24 hrs by MTT assay. The following applies: mda-mb-231, 24 h. The data set is classed as cell-based. (Tetrazolium dyes change colour on reduction, which living cells bring about.)
For data set [1], the target named is T1, Nuclear factor erythroid 2-related factor 2 (Homo sapiens) (UniProt Q16236).
T1 sequence (whole entry): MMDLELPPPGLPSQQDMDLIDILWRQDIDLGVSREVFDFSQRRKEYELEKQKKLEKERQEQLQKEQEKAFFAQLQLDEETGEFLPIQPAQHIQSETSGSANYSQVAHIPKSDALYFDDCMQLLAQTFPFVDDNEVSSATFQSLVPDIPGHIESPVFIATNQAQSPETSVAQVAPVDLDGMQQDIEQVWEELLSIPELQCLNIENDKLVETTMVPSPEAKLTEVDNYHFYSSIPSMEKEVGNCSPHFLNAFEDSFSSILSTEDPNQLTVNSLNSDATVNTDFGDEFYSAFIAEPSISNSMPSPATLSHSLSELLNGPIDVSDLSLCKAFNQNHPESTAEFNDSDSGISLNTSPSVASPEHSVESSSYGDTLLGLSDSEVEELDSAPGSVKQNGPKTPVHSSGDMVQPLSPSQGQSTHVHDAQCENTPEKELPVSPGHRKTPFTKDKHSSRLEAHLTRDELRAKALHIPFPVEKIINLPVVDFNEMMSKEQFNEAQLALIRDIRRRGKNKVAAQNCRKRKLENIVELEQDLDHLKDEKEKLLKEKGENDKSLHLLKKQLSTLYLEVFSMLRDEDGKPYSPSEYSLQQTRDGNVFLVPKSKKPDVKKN
The experiment in a line: Activation of Nrf2 in human BEAS2B cells assessed as upregulation of Nrf2 protein expression at 6.25 uM after 48 hrs by immunoblot analysis. The data set is classed as cell-based. For orientation: Immunoblotting shows a protein as a band on a membrane.

The target in data set [2] is T1, Nuclear factor erythroid 2-related factor 2 (Homo sapiens). The experiment in a line: Activation of Nrf2 in human BEAS2B cells assessed as upregulation of Nrf2 protein expression at 50 to 100 uM after 18 hrs by immunoblot analysis. The data set is classed as cell-based.
For data set [3] the target is unchanged. The experiment in a line: Activation of Nrf2 in human BEAS2B cells assessed as upregulation of GSH levels after 24 hrs. The data set is classed as cell-based.
The target is the same in data set [4]. The experiment in a line: Activation of Nrf2 in human MDA-MB-231 cells assessed as upregulation of NQO1 protein expression after 16 hrs by immunoblot analysis. It counts as cell-based.
Data set [5] shares this target. Put plainly: Activation of Nrf2 in human BEAS2B cells assessed as upregulation of Nrf2 protein expression at 3.12 to 25 uM after 12 hrs by immunoblot analysis. It counts as cell-based.
For data set [6] the target is unchanged. Put plainly: Activation of Nrf2 in human BEAS2B cells assessed as upregulation of NQO1 protein expression at 6.25 uM pretreated for 1 hr followed by co-treatment with p38 MAPK inhibitor SB203580 for 18 hrs by immunoblot analysis. It counts as cell-based.
Data set [7] deals with BEAS-2B. The experiment in a line: Cytoprotective activity in human BEAS2B cells transfected with Nrf2-SiRNA assessed as decrease in As(+3)-induced cell death at 6.25 uM preincubated for 8 hrs followed by As(+3) challenge and measured after 24 hrs by MTT assay. It counts as functional, cell-based.
Data set [8] deals with T1, Nuclear factor erythroid 2-related factor 2 (Homo sapiens). The experiment in a line: Activation of Nrf2 in human BEAS2B cells assessed as upregulation of NQO1 protein expression at 6.25 uM after 8 to 24 hrs by immunoblot analysis. The data set is classed as cell-based.
Data set [9] has the same target. Put plainly: Activation of Nrf2 in human BEAS2B cells assessed as upregulation of Nrf2 protein expression at 6.25 uM after 8 to 24 hrs by immunoblot analysis. The data set is classed as cell-based.
The target is the same in data set [10]. Put plainly: Activation of Nrf2 in human BEAS2B cells assessed as upregulation of Nrf2 protein expression at 6.25 uM pretreated for 1 hr followed by co-treatment with PI3K inhibitor LY294002 for 18 hrs by immunoblot analysis. It counts as cell-based.
Data set [11] has the same target. The experiment in a line: Stabilization of Nrf2 in human BEAS2B cells assessed as protein half life at 6.25 uM preincubated for 8 hrs followed by CHX addition and measured over 10 to 40 mins by immunoblot analysis (reference value: 14.7 min). The data set is classed as cell-based.
Data set [12] deals with BEAS-2B. Put plainly: Cytoprotective activity in human BEAS2B cells assessed as decrease in As(+3)-induced cell death at 3.12 to 25 uM preincubated for 8 hrs followed by As(+3) challenge and measured after 24 hrs by MTT assay. The data set is classed as functional, cell-based.
For data set [13], the system named is BEAS-2B. The experiment in a line: Cytotoxicity against human BEAS2B cells assessed as decrease in cell viability up to 25 uM after 48 hrs by MTT assay. The data set is classed as cell-based.
Data set [14] addresses T1, Nuclear factor erythroid 2-related factor 2 (Homo sapiens). Put plainly: Activation of Nrf2 in human BEAS2B cells assessed as upregulation of gamma-GCS protein expression at 50 to 100 uM after 18 hrs by immunoblot analysis. It counts as cell-based.
Data set [15] has the same target. Put plainly: Activation of Nrf2 in human BEAS2B cells assessed as upregulation of NQO1 protein expression at 6.25 uM pretreated for 1 hr followed by co-treatment with MEK1/2 inhibitor PD98059 for 18 hrs by immunoblot analysis. The data set is classed as cell-based.
Data set [16] has the same target. The experiment in a line: Activation of Nrf2 in human BEAS2B cells assessed as upregulation of Nrf2 protein expression at 6.25 uM pretreated for 1 hr followed by co-treatment with MEK1/2 inhibitor PD98059 for 18 hrs by immunoblot analysis. It counts as cell-based.
The target is the same in data set [17]. Put plainly: Activation of Nrf2 in human BEAS2B cells assessed as upregulation of gamma-GCS protein expression at 6.25 uM after 48 hrs by immunoblot analysis. It counts as cell-based.
For data set [18] the target is unchanged. Put plainly: Activation of Nrf2 in human BEAS2B cells assessed as upregulation of NQO1 protein expression at 0.31 to 20 uM after 18 hrs by immunoblot analysis. The data set is classed as cell-based.
Data set [19] shares this target. The experiment in a line: Inhibition of Nrf2 (unknown origin) ubiquitylation transfected in human BEAS2B cells at 6.25 uM after 6 hrs by immunoblot analysis. It counts as cell-based.
For data set [20], the target named is T2, Nuclear factor erythroid 2-related factor 2 (Mus musculus) (UniProt Q60795).
T2 sequence (whole entry): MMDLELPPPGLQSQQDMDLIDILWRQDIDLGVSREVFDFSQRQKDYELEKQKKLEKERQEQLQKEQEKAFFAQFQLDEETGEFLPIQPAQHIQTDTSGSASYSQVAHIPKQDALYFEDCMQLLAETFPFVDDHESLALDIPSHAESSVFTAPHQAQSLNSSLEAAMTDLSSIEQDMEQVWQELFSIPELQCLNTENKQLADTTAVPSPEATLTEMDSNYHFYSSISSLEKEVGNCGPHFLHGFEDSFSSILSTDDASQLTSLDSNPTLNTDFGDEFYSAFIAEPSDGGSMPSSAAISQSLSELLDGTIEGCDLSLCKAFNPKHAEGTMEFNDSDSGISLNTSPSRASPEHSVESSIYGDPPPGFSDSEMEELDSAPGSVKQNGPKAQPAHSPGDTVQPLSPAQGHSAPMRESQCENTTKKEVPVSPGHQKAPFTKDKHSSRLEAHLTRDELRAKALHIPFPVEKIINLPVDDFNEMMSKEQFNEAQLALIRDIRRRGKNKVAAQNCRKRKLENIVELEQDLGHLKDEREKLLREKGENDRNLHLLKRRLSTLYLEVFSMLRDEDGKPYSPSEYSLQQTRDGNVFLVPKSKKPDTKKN
Put plainly: Activation of Nrf2 in mouse Heap1c1c7 cells assessed as induction of NAD(P)H:quinone reductase activity at 6.25 uM pretreated for 1 hr followed by co-treatment with PKC inhibitor Ro-31-8220 for 24 hrs. The data set is classed as cell-based.

Activity calls are given as the source filed them. No cut-off for these calls is given here.

In the case of `COc1ccc(-c2coc3cc(OC)cc(O)c3c2=O)cc1` [4',7-DIMETHOXY-5-HYDROXYGENISTEIN], the Activity result was “Non-Toxic” in the data set on MDA-MB-231; “Dose-dependent effect” in data set [3]; “Dose-dependent effect” in data set [4]; “Non-Toxic” in the data set with BEAS-2B [13]; “Dose-dependent effect” in data set [18]. Further, the outcome (in data set [1]; in data set [2]; in data set [6]; in the data set with BEAS-2B [7]; in data set [10]; in data set [14]) was inactive. Further, the outcome in data set [15], in data set [16], in data set [17] and in data set [20] was inactive. Besides, the outcome (in data set [5]; in data set [8]; in [9]; with BEAS-2B [12]) was Active. For the same compound, in data set [11], the T1/2 was 27.6 min. Further, in data set [19], the inhibition result is “Active”.

The values are drawn from ChEMBL document CHEMBL4229568, “Discovery of natural flavonoids as activators of Nrf2-mediated defense system: Structure-activity relationship and inhibition of intracellular oxidative insults” (Bioorg Med Chem, 2018).
